Laboratory results: US20250186404A1, “METHODS OF USING A (THIAZOLYL)BENZENESULFONAMIDE DERIVATIVE” (Cyteir Therapeutics, Inc., priority 2023, published 2025)

Legend:
[1] = test system: Daudi (Burkitt Lymphoma) cells; assay: Intracellular Lactate Accumulation Assay (Lactate-Glo); type: cell-based, human; settings: Homo sapiens; Daudi cells, 2 h treatment, intracellular lactate accumulation; read-out: LactateGlo EC50
Experimental: Intracellular lactate accumulation after a 2 h treatment with compounds of the present invention was measured in Daudi (Burkitt Lymphoma) cells using the Lactate-Glo Assay (Promega).
Daudi cells were seeded at 7,500 cells per well in 150 μL of growth medium (RPMI-1640 with 2 mM GlutaMAX+10% FBS) in clear, 96-well, flat-bottom microplates, and incubated overnight (37° C., 5% CO2). Compounds of the present invention were added using an INTEGRA VIAFLO 96 (8 point, 3-fold serial dilution, top concentration 1, 10, or 20 μM, 0.4% final DMSO concentration). After a 2 h incubation (37° C., 5% CO2) microplates containing cells were washed twice with 150 μL ice-cold PBS, resuspended in 25 μL ice-cold PBS containing 12.5 μL 0.6N HCl, and placed on a microplate shaker for 5 min to lyse the cells. Following lysis, 12.5 μL 1M Trizma base was added to neutralize the suspension, and microplates were returned to the microplate shaker for 1 min. Plates were sealed and stored at −20° C. until further processing. On the day of the assay, microplates were thawed for 45 min at room temperate and 50 μL Lactate Detection Reagent (prepared as specified by manufacturer) was added to each well. Microplates were placed on a plate shaker for 1 min and incubated at room temperature for 1 h. Luminescence was measured using a BioTek Cytation 5 Multi-Mode Reader. Curve fitting and calculation of EC50 was performed using GraphPad Prism.
In addition, Daudi human lymphoma cells were treated with a titration of Compound 67A for 4 h, then intracellular lactate was measured via LactateGlo (FIG. 2). Compound 67A treatment elevates intracellular lactate (FIGS. 3-5). […] Inhibiting MCT function in glycolytic cancer cells leads to an accumulation of intracellular lactate that impairs glycolysis and inhibits tumor cell growth, thereby making MCTs an attractive target for cancer therapy. Compound 67A inhibits the import of MCT ligands into cells, and induces dose-dependent intracellular lactate accumulation that correlates with cytotoxicity. MCT4 expression inversely correlates with lactate accumulation and the extent of Compound 67A cytotoxicity in cells.

human MCT1 = biological target: T1, human MCT1 (Homo sapiens, UniProt P53985); assay: MCT1 Transport Inhibition Assay (TPGA uptake, LC-MS/MS); type: cell-based; settings: MDCK-II cells overexpressing human MCT1, TPGA transport; read-out: BioIVT MCT1 Transporter IC50
T1 construct: host or cells: MDCK-II (canine) cells, transient co-transfection
T1 sequence (P53985 1-500): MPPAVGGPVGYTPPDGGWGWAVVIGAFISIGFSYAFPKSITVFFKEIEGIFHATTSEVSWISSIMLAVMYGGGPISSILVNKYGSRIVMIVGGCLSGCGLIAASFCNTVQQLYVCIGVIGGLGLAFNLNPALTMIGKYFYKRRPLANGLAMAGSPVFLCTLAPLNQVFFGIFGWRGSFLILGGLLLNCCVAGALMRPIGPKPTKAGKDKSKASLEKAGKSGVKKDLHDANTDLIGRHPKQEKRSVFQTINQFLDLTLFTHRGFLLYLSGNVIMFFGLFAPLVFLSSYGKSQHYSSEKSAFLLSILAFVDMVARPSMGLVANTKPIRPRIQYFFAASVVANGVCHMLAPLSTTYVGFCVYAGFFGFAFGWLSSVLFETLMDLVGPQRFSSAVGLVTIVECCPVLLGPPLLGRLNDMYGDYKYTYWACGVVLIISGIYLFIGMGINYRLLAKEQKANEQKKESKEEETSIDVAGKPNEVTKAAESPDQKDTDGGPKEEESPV
T1 sequence (P35613 140-385 partner limits assumed): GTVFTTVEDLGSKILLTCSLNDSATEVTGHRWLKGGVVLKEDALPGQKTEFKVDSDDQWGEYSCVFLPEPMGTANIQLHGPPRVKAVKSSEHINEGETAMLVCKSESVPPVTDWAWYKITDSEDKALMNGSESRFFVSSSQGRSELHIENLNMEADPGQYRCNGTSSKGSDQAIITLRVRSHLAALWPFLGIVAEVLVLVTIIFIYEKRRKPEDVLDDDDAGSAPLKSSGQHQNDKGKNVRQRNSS
Experimental: Inhibition of MCT1 transport after treatment with compounds of the present invention was measured in MDCK-II cells that overexpress human MCT1 by quantifying the transport of 2-Thiophene-glycoxylic acid (TPGA) into cells using LC-MS/MS.
MDCK-II cells are seeded at 60,000 cells per well in growth medium (low-glucose DMEM+10% FBS) in 96-well trans-well membrane plates, and incubated overnight (37° C., 5% CO2). Cells were co-transfected with mammalian expression constructs coding for MCT1 and CD147 at a 2:1 ratio or an empty vector control (GFP) and then incubated for 48 h (37° C., 5% CO2). Cells were washed 3 times with HBSS and cells were preincubated with inhibitors or vehicle control at room temperature in HBSS for 30 min with orbital shaking (60 rpm). HBSS was aspirated from the wells and replaced with HBSS with 25 mM Bis-Tris pH5.5+inhibitor or vehicle control+500 μM TPGA and incubated for 1 min at room temperature with orbital shaking (60 rpm). Both the apical and basolateral side of the trans-well insert were washed 4 times with ice-cold PBS. Cells were lysed with 60 μL of cell extraction solution, and the amount of TPGA in each well was quantified in triplicate by LC-MS/MS. The MCT1-mediated uptake rate was calculated using the following equation: […]
Percent inhibition for each concentration of inhibitor tested was calculated using the following equation: […]
Curves were fit to the calculated percent inhibition for each inhibitor, and the IC50 representing the concentration of inhibitor at which MCT1 is inhibited by 50% was calculated from this curve.
Canine MDCKII cells expressing human MCT1 were treated with a titration of Compound 67A, and import of the MCT1 substrate, 2-TPGA was measured by LC-MS (FIG. 1).

| EC50 [1] | IC50 (human MCT1) | SMILES |
| --- | --- | --- |
| – | 0.15 to 1 µM | CC(C)OC(=O)N[C@H]1CC[C@H](c2ncc(-c3ccc(NC(=O)NCc4ccccc4)cc3S(=O)(=O)NC(C)(C)C)s2)CC1 [Compound 62B] |
| < 0.05 µM | – | CC(C)OC(=O)NC1CCC(c2ncc(-c3ccc(NC(=O)NCc4ccccc4)cc3S(=O)(=O)NC(C)(C)C)s2)CC1 (stereo not drawn) [Compound 62B] |
| > 5 µM | – | CNC(=N)Nc1ccc(-c2cnc(C3CCC(NC(=O)OC(C)C)CC3)s2)c(S(=O)(=O)NC(C)(C)C)c1 (stereo not drawn) [Compound 75] |

Further lines, the molecule ahead of its results:

| SMILES | EC50 [1] | IC50 (human MCT1) |
| --- | --- | --- |
| COC(=O)NC1CCC(c2ncc(-c3ccc(NC(=O)OC(C)C)cc3S(=O)(=O)NC(C)(C)C)s2)CC1 (stereo not drawn) [Compound 76] | > 5 µM | – |
| CC(C)OC(=O)Nc1ccc(-c2cnc([C@H]3CC[C@@H](NC(=O)OC(C)C)CC3)s2)c(S(=O)(=O)NC(C)(C)C)c1 [Compound 67B] | > 5 µM | 1 to 5 µM |
